Assays:
[1] = system: Cholesterinesterase (Cholesterinesterhydrolase EC 3.1.1.13); assay: Cholesterol esterase colour test according to Example 2 (photometric release of resorufin); format: biochemical; details: λ = 571 nm, 25°C, 0,1 M Kalium-Phosphat-Puffer pH 6,8
Experimental: 2 mg Cholesterin-glutarsäureresorufinester werden in 0,5 ml Dioxan und 0,5 ml Thesit® gelöst.
Zur Messung werden 850 µl 0,1 M Kalium-Phosphat-Puffer pH 6,8 und 50 µl der oben beschriebenen Substratlösung in einer Küvette gut durchgemischt. Nach Zugabe von 100 µl Probe (Enzymlösung) wird ΔE/min photometrisch bei λ = 571 nm bestimmt (Temperatur = 25°C).
Bei Auswertung über einen Standard bekannter Cholesterinesteraseaktivität wird die Cholesterinesteraseaktivität der Probe wie folgt berechnet [formula] Eine Berechnung der Cholesterinesteraseaktivität der Probe ist auch nach folgender Formel möglich: [formula] Vges : Gesamtvolumen des Testansatzes [cm³] VProbe : Volumen der Probe [cm³] ε : Extinktionskoeefizient des Chromogens bei 571 nm d : Schichtdicke der Küvette [cm] ΔE/min : Extinktionsänderung pro Minute bei 571 nm
Bei den genannten Reaktionsbedingungen beträgt der Extinktionskoeffizient ε = 60,00·cm² ·µmol⁻¹.
(§1) Zum Vergleich wurde der Cholesterinesterase-Test mit Cholesterinoleat als Substrat durchgeführt (Bergmeyer, Methods of Enzymatic Analysis, 3th.Ed., Vol.II, S. 168) und mit dem Farbtest gemäß Beispiel 2 verglichen und der Korrelationskoeffizient ermittelt. Die Ergebnisse zeigen Tabelle I und Figur 1. TABELLE I

[2] = system: Cholesterinesterase (Cholesterinesterhydrolase EC 3.1.1.13); assay: Cholesterol esterase test with cholesterol oleate as substrate (Bergmeyer UV method, comparison); format: biochemical
From the text: Bekannt ist die photometrische Bestimmung im UV. Freigesetztes Cholesterin wird mittels Cholesterinoxidase zu Cholestenon oxidiert, das anhand der Absorptionszunahme bei λ = 240 nm gemessen werden kann (Bergmeyer, Methods of Enzymatic Analysis, 3th.Ed., Vol.II, S.168). Alternativ wird das bei dieser Oxidation gebildete Wasserstoff peroxid durch eine Farb-Reaktion bestimmt (Stähler, Med.Lab. 30, 29 (77)). Diese Methoden sind umständlich und ebenfalls störanfällig.
as §1

Row | ΔE/min ([2]; Konz. 1,0 mg/ml) | ΔE/min ([2]; Konz. 1,3 mg/ml) | ΔE/min ([2]; Konz. 2,0 mg/ml) | ΔE/min ([2]; Konz. 5,0 mg/ml) | ΔE/min ([2]; Konz. 6,6 mg/ml) | ΔE/min ([2]; Konz. 10,0 mg/ml) | Compound | ΔE/min ([1]; Konz. 1,0 mg/ml) | ΔE/min ([1]; Konz. 1,3 mg/ml) | ΔE/min ([1]; Konz. 2,0 mg/ml) | ΔE/min ([1]; Konz. 5,0 mg/ml) | ΔE/min ([1]; Konz. 10,0 mg/ml)
1 | – | – | – | – | – | – | CC(C)CCC[C@@H](C)[C@H]1CC[C@H]2[C@@H]3CC=C4C[C@@H](OC(=O)CCCC(=O)Oc5ccc6nc7ccc(=O)cc-7oc6c5)CC[C@]4(C)[C@H]3CC[C@]12C [Cholesterin-Glutarsäure-Resorufinester, Cholesterin-glutarsäure-resorufinester] | 0,009 | 0,013 | 0,015 | 0,033 | 0,071
2 | 0,007 | 0,011 | 0,015 | 0,036 | 0,045 | 0,072 | CCCCCCCC/C=C\CCCCCCCC(=O)O[C@H]1CC[C@@]2(C)C(=CC[C@H]3[C@@H]4CC[C@H]([C@H](C)CCCC(C)C)[C@@]4(C)CC[C@@H]32)C1 [Cholesterin-Oleat, Cholesterinoleat] | – | – | – | – | –

Source: patent EP0328029A2, “Cholesterol-esterase colour substrate” (BOEHRINGER MANNHEIM GMBH, priority 1988, dated 1989)
